Legend:
Pim3 kinase = Pim3 kinase (Homo sapiens, UniProt Q86V86); experiment: Pim3 AlphaScreen assay (high ATP)
Method: (§1) The activity of Pim 1, Pim 2, & Pim 3 is measured using a homogeneous bead based system quantifying the amount of phosphorylated peptide substrate resulting from kinase-catalyzed phosphoryl transfer to a peptide substrate. Compounds to be tested are dissolved in 100% DMSO and directly distributed to a white 384-well plate at 0.25 μl per well. […] This is followed by the addition of 5 μl/well of Pim 1, Pim 2 or Pim 3 kinase in assay buffer (concentrations described below). Final assay concentrations (described below) are in 2.5% DMSO. The reactions are performed for ˜2 hours, then stopped by the addition of 10 μl of 0.75 μg/ml anti-phospho Ser/Thr antibody (Cell Signaling), 10 μg/ml Protein A AlphaScreen beads (Perkin Elmer), and 10 μg/ml streptavidin coated AlphaScreen beads in stop/detection buffer (50 mM EDTA, 95 mM Tris, pH=7.5, 0.01% Tween-20). The stopped reactions are incubated overnight in the dark. The phosphorylated peptide is detected via an oxygen anion initiated chemiluminescence/fluorescence cascade using the Envision plate reader (Perkin Elmer).

[1] = system: KMS11 (human myeloma cell line); experiment: Cell proliferation assay (CellTiter-Glo) in KMS11 cells; format: cell-based; conditions: KMS-11, 72 h, Table 5, 3 days, read-out: KMS11-luc EC50
Method: KMS11 (human myeloma cell line), were cultured in IMDM supplemented with 10% FBS, sodium pyruvate and antibiotics. Cells were plated in the same medium at a density of 2000 cells per well into 96 well tissue culture plates, with outside wells vacant, on the day of assay.
Test compounds supplied in DMSO were diluted into DMSO at 500 times the desired final concentrations before dilution into culture media to 2 times final concentrations.
After 3 days plates were equilibrated to room temperature and equal volume of CellTiter-Glow Reagent (Promega) was added to the culture wells. The plates were agitated briefly and luminescent signal was measured with luminometer.

Pim2 kinase = Pim2 kinase (Homo sapiens, UniProt Q9P1W9); experiment: Pim2 AlphaScreen assay (high ATP)
Sequence of Pim2 kinase (Q9P1W9 whole entry): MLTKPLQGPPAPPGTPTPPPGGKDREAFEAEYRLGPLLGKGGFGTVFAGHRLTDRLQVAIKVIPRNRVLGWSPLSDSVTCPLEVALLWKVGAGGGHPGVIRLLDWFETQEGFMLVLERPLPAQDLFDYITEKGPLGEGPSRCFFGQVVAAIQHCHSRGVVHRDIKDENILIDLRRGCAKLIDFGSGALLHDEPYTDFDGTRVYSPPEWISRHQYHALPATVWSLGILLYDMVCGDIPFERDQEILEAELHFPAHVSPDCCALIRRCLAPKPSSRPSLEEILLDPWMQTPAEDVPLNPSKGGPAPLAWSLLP
Method: as §1

Pim1 kinase = Pim1 kinase (Homo sapiens, UniProt P11309); experiment: Pim1 AlphaScreen assay (high ATP)
Sequence of Pim1 kinase (P11309 whole entry): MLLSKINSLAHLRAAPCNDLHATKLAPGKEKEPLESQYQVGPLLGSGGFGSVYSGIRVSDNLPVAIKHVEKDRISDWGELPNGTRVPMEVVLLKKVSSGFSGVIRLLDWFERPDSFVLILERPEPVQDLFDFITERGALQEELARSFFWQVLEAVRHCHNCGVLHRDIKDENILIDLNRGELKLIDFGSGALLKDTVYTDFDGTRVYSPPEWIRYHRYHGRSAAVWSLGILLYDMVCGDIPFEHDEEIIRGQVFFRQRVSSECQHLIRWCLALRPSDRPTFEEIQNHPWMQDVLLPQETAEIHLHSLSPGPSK
Method: as §1

SMILES | IC50 (Pim3 kinase) [nM] | EC50 [1] [nM] | IC50 (Pim2 kinase) [nM] | IC50 (Pim1 kinase) [nM]
C[C@H]1C[C@@H](c2ccncc2NC(=O)c2ccc(F)c(-c3c(F)cc(C4(O)CCCC4)cc3F)n2)C[C@@H](O)[C@]1(C)O [Example 80, 6-(2,6-difluoro-4-(1-hydroxycyclopentyl)phenyl)-N-(4-((1R,3R,4R,5S)-3,4-dihydroxy-4,5-dimethylcyclohexyl)pyridin-3-yl)-5-fluoropicolinamide] | 55 | 169 | 126 | 0.15
C[C@H]1C[C@@H](c2ccncc2NC(=O)c2ccc(F)c(-c3c(F)cc(C(C)(C)C#N)cc3F)n2)C[C@@H](N)[C@]1(C)O [Example 86, N-(4-((1R,3R,4R,5S)-3-amino-4-hydroxy-4,5-dimethylcyclohexyl)pyridin-3-yl)-6-(4-(2-cyanopropan-2-yl)-2,6-difluorophenyl)-5-fluoropicolinamide] | 2.46 | 66 | 2.74 | 0.03
C[C@H]1C[C@@H](c2ccncc2NC(=O)c2ccc(F)c(-c3c(F)cc(C4(C#N)CCOCC4)cc3F)n2)C[C@@H](N)[C@]1(C)O [Example 88, N-(4-((1R,3R,4R,5S)-3-amino-4-hydroxy-4,5-dimethylcyclohexyl)pyridin-3-yl)-6-(4-(4-cyanotetrahydro-2H-pyran-4-yl)-2,6-difluorophenyl)-5-fluoropicolinamide] | 5.59 | 101 | 5.8 | 0.03
C[C@H]1C[C@@H](c2ccncc2NC(=O)c2ccc(F)c(-c3c(F)cc(OC4CCOCC4)cc3F)n2)C[C@@H](O)[C@]1(C)O [Example 90, 6-(2,6-difluoro-4-(tetrahydro-2H-pyran-4-yloxy)phenyl)-N-(4-((1R,3R,4R,5S)-3,4-dihydroxy-4,5-dimethylcyclohexyl)pyridin-3-yl)-5-fluoropicolinamide] | 64.4 | 557 | 215 | 0.47
CC(C)OCc1cc(F)c(-c2nc(C(=O)Nc3cnccc3[C@H]3C[C@@H](N)[C@](C)(O)[C@@H](C)C3)ccc2F)c(F)c1 [Example 91, N-(4-((1R,3R,4R,5S)-3-amino-4-hydroxy-4,5-dimethylcyclohexyl)pyridin-3-yl)-6-(2,6-difluoro-4-(isopropoxymethyl)phenyl)-5-fluoropicolinamide] | 1.62 | 102 | 2.4 | 0.07
C[C@H]1C[C@@H](c2ccncc2NC(=O)c2ccc(F)c(-c3c(F)cc(COC4CCOCC4)cc3F)n2)C[C@@H](N)[C@]1(C)O [Example 92, N-(4-((1R,3R,4R,5S)-3-amino-4-hydroxy-4,5-dimethylcyclohexyl)pyridin-3-yl)-6-(2,6-difluoro-4-((tetrahydro-2H-pyran-4-yloxy)methyl)phenyl)-5-fluoropicolinamide] | 2.2 | 91 | 3.89 | 0.09
Cc1noc(C)c1-c1cc(F)c(-c2nc(C(=O)Nc3cnccc3[C@H]3C[C@@H](N)[C@](C)(O)[C@@H](C)C3)ccc2F)c(F)c1 [Example 94, N-(4-((1R,3R,4R,5S)-3-amino-4-hydroxy-4,5-dimethylcyclohexyl)pyridin-3-yl)-6-(4-(3,5-dimethylisoxazol-4-yl)-2,6-difluorophenyl)-5-fluoropicolinamide] | 47.8 | 3230 | 114 | 0.3
C[C@H]1C[C@@H](c2ccncc2NC(=O)c2ccc(F)c(-c3c(F)cc(C4(O)CCC4)cc3F)n2)C[C@@H](N)[C@]1(C)O [Example 95, N-(4-((1R,3R,4R,5S)-3-amino-4-hydroxy-4,5-dimethylcyclohexyl)pyridin-3-yl)-6-(2,6-difluoro-4-(1-hydroxycyclobutyl)phenyl)-5-fluoropicolinamide] | 2.37 | 174 | 3.85 | 0.04
C[C@@H]1C[C@H](c2ccncc2NC(=O)c2ccc(F)c(-c3c(F)cc(OC4CCOCC4)cc3F)n2)C[C@H](O)[C@@]1(C)O [Example 96, 6-(2,6-difluoro-4-(tetrahydro-2H-pyran-4-yloxy)phenyl)-N-(4-((1S,3S,4S,5R)-3,4-dihydroxy-4,5-dimethylcyclohexyl)pyridin-3-yl)-5-fluoropicolinamide] | 2620 | > 10000 | 8720 | 18.7
C[C@H]1C[C@@H](c2ccncc2NC(=O)c2nc(-c3c(F)cc(C(C)(C)O)cc3F)c(F)cc2N)C[C@@H](O)[C@]1(C)O [Example 97, 3-amino-6-(2,6-difluoro-4-(2-hydroxypropan-2-yl)phenyl)-N-(4-((1R,3R,4R,5S)-3,4-dihydroxy-4,5-dimethylcyclohexyl)pyridin-3-yl)-5-fluoropicolinamide] | 8.24 | 405 | 28.9 | 0.24
COCCOc1cc(F)c(-c2nc(C(=O)Nc3cnccc3[C@H]3C[C@@H](O)[C@](C)(O)[C@@H](C)C3)c(N)cc2F)c(F)c1 [Example 98, 3-amino-6-(2,6-difluoro-4-(2-methoxyethoxy)phenyl)-N-(4-((1R,3R,4R,5S)-3,4-dihydroxy-4,5-dimethylcyclohexyl)pyridin-3-yl)-5-fluoropicolinamide] | 40.2 | 427 | 133 | 0.83
CC(C)Oc1cc(F)c(-c2nc(C(=O)Nc3cnccc3[C@H]3C[C@@H](O)[C@](C)(O)[C@@H](C)C3)c(N)cc2F)c(F)c1 [Example 99, 3-amino-6-(2,6-difluoro-4-isopropoxyphenyl)-N-(4-((1R,3R,4R,5S)-3,4-dihydroxy-4,5-dimethylcyclohexyl)pyridin-3-yl)-5-fluoropicolinamide] | 45.5 | 1150 | 107 | 0.96

Stronger by IC50 (Pim3 kinase), values ahead:

IC50 (Pim3 kinase) [nM] | EC50 [1] [nM] | IC50 (Pim2 kinase) [nM] | IC50 (Pim1 kinase) [nM] | SMILES
1.23 | 1400 | 8.44 | 0.09 | C[C@H]1C[C@@H](c2ccncc2NC(=O)c2ccc(F)c(-c3c(F)cc(OCC(=O)N(C)C)cc3F)n2)C[C@@H](N)[C@]1(C)O [Example 93, N-(4-((1R,3R,4R,5S)-3-amino-4-hydroxy-4,5-dimethylcyclohexyl)pyridin-3-yl)-6-(4-(2-(dimethylamino)-2-oxoethoxy)-2,6-difluorophenyl)-5-fluoropicolinamide]
1.18 | 43 | 2.68 | 0.02 | C[C@H]1C[C@@H](c2ccncc2NC(=O)c2ccc(F)c(-c3c(F)cc(C4(O)CCCC4)cc3F)n2)C[C@@H](N)[C@]1(C)O [Example 82, N-(4-((1R,3R,4R,5S)-3-amino-4-hydroxy-4,5-dimethylcyclohexyl)pyridin-3-yl)-6-(2,6-difluoro-4-(1-hydroxycyclopentyl)phenyl)-5-fluoropicolinamide]
0.94 | 409 | 4.42 | 0.03 | C[C@H]1C[C@@H](c2ccncc2NC(=O)c2ccc(F)c(-c3c(F)cc(C4=CCCC4)cc3F)n2)C[C@@H](N)[C@]1(C)O [Example 81, N-(4-((1R,3R,4R,5S)-3-amino-4-hydroxy-4,5-dimethylcyclohexyl)pyridin-3-yl)-6-(4-cyclopentenyl-2,6-difluorophenyl)-5-fluoropicolinamide]
0.71 | 9300 | 3.71 | 0.03 | C[C@H]1C[C@@H](c2ccncc2NC(=O)c2nc(-c3c(F)cc(C4(O)CCOCC4)cc3F)sc2N)C[C@@H](N)[C@]1(C)O [Example 83, 5-amino-N-(4-((1R,3R,4R,5S)-3-amino-4-hydroxy-4,5-dimethylcyclohexyl)pyridin-3-yl)-2-(2,6-difluoro-4-(4-hydroxytetrahydro-2H-pyran-4-yl)phenyl)thiazole-4-carboxamide]
0.48 | 343 | 2.8 | 0.01 | C[C@H]1C[C@@H](c2ccncc2NC(=O)c2nc(-c3c(F)cc(C4(F)CCOCC4)cc3F)sc2N)C[C@@H](N)[C@]1(C)O [Example 84, 5-amino-N-(4-((1R,3R,4R,5S)-3-amino-4-hydroxy-4,5-dimethylcyclohexyl)pyridin-3-yl)-2-(2,6-difluoro-4-(4-fluorotetrahydro-2H-pyran-4-yl)phenyl)thiazole-4-carboxamide]
0.41 | 57 | 1.91 | 0.01 | C[C@H]1C[C@@H](c2ccncc2NC(=O)c2ccc(F)c(-c3c(F)cc(N4CCOCC4)cc3F)n2)C[C@@H](N)[C@]1(C)O [Example 87, N-(4-((1R,3R,4R,5S)-3-amino-4-hydroxy-4,5-dimethylcyclohexyl)pyridin-3-yl)-6-(2,6-difluoro-4-morpholinophenyl)-5-fluoropicolinamide]
0.35 | 22 | 1.47 | 0.02 | C[C@H]1C[C@@H](c2ccncc2NC(=O)c2ccc(F)c(-c3c(F)cc(O[C@H]4CCCOC4)cc3F)n2)C[C@@H](N)[C@]1(C)O [Example 89, N-(4-((1R,3R,4R,5S)-3-amino-4-hydroxy-4,5-dimethylcyclohexyl)pyridin-3-yl)-6-(2,6-difluoro-4-((S)-tetrahydro-2H-pyran-3-yloxy)phenyl)-5-fluoropicolinamide]
0.32 | 706 | 1.99 | 0.01 | C[C@H]1C[C@@H](c2ccncc2NC(=O)c2nc(-c3c(F)cc(C4CCOCC4)cc3F)sc2N)C[C@@H](N)[C@]1(C)O [Example 85, 5-amino-N-(4-((1R,3R,4R,5S)-3-amino-4-hydroxy-4,5-dimethylcyclohexyl)pyridin-3-yl)-2-(2,6-difluoro-4-(tetrahydro-2H-pyran-4-yl)phenyl)thiazole-4-carboxamide]

Reference: patent US20120225061A1, “TETRASUBSTITUTED CYCLOHEXYL COMPOUNDS AS KINASE INHIBITORS” (priority 2011, published 2012)
